The experiment addresses T1, human mAChR M4 (Homo sapiens, UniProt P08173).
T1 construct: expressed in transfected cells; host or cells: CHO-K1 (American Type Culture Collection), stably expressing hM4 and Gqi5
T1 sequence (P08173 1-479): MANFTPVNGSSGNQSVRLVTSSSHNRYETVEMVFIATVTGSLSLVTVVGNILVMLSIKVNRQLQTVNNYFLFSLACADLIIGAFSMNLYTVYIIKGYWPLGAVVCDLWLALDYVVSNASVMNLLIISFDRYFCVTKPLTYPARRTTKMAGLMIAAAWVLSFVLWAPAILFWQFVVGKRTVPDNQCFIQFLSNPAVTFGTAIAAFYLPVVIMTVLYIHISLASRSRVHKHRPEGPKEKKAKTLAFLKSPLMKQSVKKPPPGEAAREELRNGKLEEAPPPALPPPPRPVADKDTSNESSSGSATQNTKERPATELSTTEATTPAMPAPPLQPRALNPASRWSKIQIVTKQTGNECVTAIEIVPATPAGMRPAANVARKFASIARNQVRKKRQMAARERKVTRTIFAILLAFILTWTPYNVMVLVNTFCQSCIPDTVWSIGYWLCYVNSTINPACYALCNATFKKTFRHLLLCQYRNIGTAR
As to the kind of experiment: mAChR M4 cell-based functional assay: calcium mobilization (Fluo-4, FDSS), potentiation of EC20 acetylcholine response in hM4-Gqi5 CHO-K1 cells. The following applies: human M4; for Emax at 30 µM: CHO-K1, % ACh maximum at 30 μM; for EC50: potentiation of EC20 acetylcholine response, calcium mobilization. In outline:
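CHO-K1 cells stably co-expressing human M4 and chimeric Gqi5, loaded with Fluo-4 AM (50 min, 37 °C). Compounds in 11-point 1:3 series added first; EC20 acetylcholine added at 144 s and again at 230 s. Calcium read on FDSS at 1 Hz; EC50 and Emax from four-parameter logistic fit of potentiated EC20 response.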
For orientation: A change in cytosolic calcium serves as a functional read-out for many receptors and channels.

Structures are written as SMILES.

Take `Cc1cc(Nc2cnc3c(c2)CN(c2nn4c(=O)ccnc4cc2C)CC3)c(F)cn1` [Compound 2-155, 7-(3-((5-fluoro-2-methylpyridin-4-yl)amino)-7,8-dihydro-1,6-naphthyridin-6(5H)-yl)-8-methyl-4H-pyrimido[1,2-b]pyridazin-4-one]: the Emax (as a rule, the greatest response seen or fitted, relative to the assay's reference) at 30 µM amounted to 94% and the EC50 (usually the midpoint of the concentration-response curve) is 21 nM.
In the same order, the values of `[2H]C1([2H])Cc2ncc(-c3c(C)noc3C)cc2C([2H])([2H])N1c1nn2c(=O)ccnc2cc1C` [Compound 1-450, 7-(3-(3,5-Dimethylisoxazol-4-yl)-7,8-dihydro-1,6-naphthyridin-6(5H)-yl-5,5,7,7-d4)-8-methyl-4H-pyrimido[1,2-b]pyridazin-4-one] are 95% and 291 nM.
For the compound `Cc1ccc(-c2cnc3c(c2)CN(c2nn4c(=O)cc(C)nc4c(C)c2C)CC3)c(C)c1` [Compound 1-136, 7-(3-(2,4-dimethylphenyl)-7,8-dihydro-1,6-naphthyridin-6(5H)-yl)-2,8,9-trimethyl-4H-pyrimido[1,2-b]pyridazin-4-one], the Emax at 30 µM was determined as 102% and the EC50 was determined as 633 nM.
Consider `Cc1c(N2CCc3ncc(N4CCCn5nccc54)cc3C2)nn2c(=O)ccnc2c1C` [Compound 2-36, 7-(3-(6,7-dihydropyrazolo[1,5-a]pyrimidin-4(5H)-yl)-7,8-dihydro-1,6-naphthyridin-6(5H)-yl)-8,9-dimethyl-4H-pyrimido[1,2-b]pyridazin-4-one], for which the Emax at 30 µM is 103% and the EC50 is 13 nM.
For the compound `Cc1cc(=O)n2nc(N3CCc4ncc(-c5ccnn5C5COC5)cc4C3)c(C)c(C)c2n1` [Compound 1-176, 2,8,9-trimethyl-7-(3-(1-(oxetan-3-yl)-1H-pyrazol-5-yl)-7,8-dihydro-1,6-naphthyridin-6(5H)-yl)-4H-pyrimido[1,2-b]pyridazin-4-one], the Emax at 30 µM amounted to 74% and the EC50 amounted to 4840 nM.
Taken in the same sequence, the figures for `Cc1c(N2CCc3ncc(-c4cnccc4C(F)(F)F)cc3C2)nn2c(=O)ccnc2c1C` [Compound 1-142, 8,9-dimethyl-7-(3-(4-(trifluoromethyl)pyridin-3-yl)-7,8-dihydro-naphthyridin-6(5H)-yl)-4H-pyrimido[1,2-b]pyridazin-4-one] were 53% and 371 nM.
In the same order, the values of `Cc1cc(=O)n2nc(N3CCc4ncc(N5CCSCC5)cc4C3)c(C)c(C)c2n1` [Compound 2-46, 2,8,9-trimethyl-7-(3-thiomorpholino-7,8-dihydro-1,6-naphthyridin-6(5H)-yl)-4H-pyrimido[1,2-b]pyridazin-4-one] are 99% and 308 nM.
Regarding `Cc1cc2nccc(=O)n2nc1N1CCc2ncc(-c3cnc(F)c(F)c3)cc2C1` [Compound 1-331, 7-(3-(5,6-difluoropyridin-3-yl)-7,8-dihydro-1,6-naphthyridin-6(5H)-yl)-8-methyl-4H-pyrimido [1,2-b]pyridazin-4-one], the maximal response (Emax) at 30 µM is 53% and the EC50 was determined as 1250 nM.
For `Cc1cc2nccc(=O)n2nc1N1CCc2ncc(Nc3ccc(C(C)C)nc3)cc2C1` [Compound 2-101, 7-(3-((6-isopropylpyridin-3-yl)amino)-7,8-dihydro-1,6-naphthyridin-6(5H)-yl)-8-methyl-4H-pyrimido[1,2-b]pyridazin-4-one], the Emax at 30 µM turned out to be 65% and the EC50 was 527 nM.
Consider `Cc1cc2nccc(=O)n2nc1N1CCc2ncc(Nc3ccc(C4CC4)nc3)cc2C1` [Compound 2-125, 7-(3-((6-cyclopropylpyridin-3-yl)amino)-7,8-dihydro-1,6-naphthyridin-6(5H)-yl)-8-methyl-4H-pyrimido[1,2-b]pyridazin-4-one], for which the Emax at 30 µM amounted to 58%.
On to `COc1cc(-c2cnc3c(c2)CN(c2nn4c(=O)ccnc4cc2C)CC3)c(Cl)cn1` [Compound 1-57, 7-(3-(5-chloro-2-methoxypyridin-4-yl)-7,8-dihydro-1,6-naphthyridin-6(5H)-yl)-8-methyl-4H-pyrimido[1,2-b]pyridazin-4-one], for which the Emax at 30 µM worked out at 70% and the EC50 is 735 nM.
Taken in the same sequence, the figures for `Cc1cc(=O)n2nc(N3CCc4ncc(-c5cnn(C)c5C)cc4C3)c(C)c(C)c2n1` [Compound 1-185, 7-(3-(1,5-dimethyl-1H-pyrazol-4-yl)-7,8-dihydro-1,6-naphthyridin-6(5H)-yl)-2,8,9-trimethyl-4H-pyrimido[1,2-b]pyridazin-4-one] were 86% and 752 nM.
Consider `Cc1cc2nccc(=O)n2nc1N1CCc2ncc(-c3cccnc3)cc2C1` [Compound 1-68, 8-methyl-7-(3-(pyridin-3-yl)-7,8-dihydro-1,6-naphthyridin-6(5H)-yl)-4H-pyrimido[1,2-b]pyridazin-4-one], for which the Emax at 30 µM turned out to be 84% and the EC50 turned out to be 358 nM.
Taken in the same sequence, the figures for `COc1cnccc1-c1cnc2c(c1)CN(c1nn3c(=O)cc(C)nc3c(C)c1C)CC2` [Compound 1-282, 7-(3-(3-methoxypyridin-4-yl)-7,8-dihydro-1,6-naphthyridin-6(5H)-yl)-2,8,9-trimethyl-4H-pyrimido[1,2-b]pyridazin-4-one] were 90% and 481 nM.
Take `Cc1c(N2CCc3ncc(C(F)(F)F)cc3C2C)nn2c(=O)ccnc2c1C` (single isomer, unassigned) [Compound 1-385, 8,9-dimethyl-7-(5-methyl-3-(trifluoromethyl)-7,8-dihydro-1,6-naphthyridin-6(5H)-yl)-4H-pyrimido[1,2-b] pyridazin-4-one]: the EC50 stood at 1730 nM. In addition, under “% ACh maximum at 30 μM”, the “Emax (%)*” value is reported as 42%.
Consider `Cc1c(N2CCc3ncc(-c4cnn(C)c4)cc3C2)nn2c(=O)ccnc2c1C` [Compound 1-62, 8,9-dimethyl-7-(3-(1-methyl-1H-pyrazol-4-yl)-7,8-dihydro-1,6-naphthyridin-6(5H)-yl)-4H-pyrimido[1,2-b]pyridazin-4-one], for which the maximum response (Emax) at 30 µM came to 89% and the EC50 was determined as 128 nM.
Taken in the same sequence, the figures for `Cc1c(N2CCc3ncc(-c4cnn(C5COC5)c4)cc3C2)nn2c(=O)cc(C(F)F)nc2c1C` [Compound 1-309, 2-(difluoromethyl)-8,9-dimethyl-7-(3-(1-(oxetan-3-yl)-1H-pyrazol-4-yl)-7,8-dihydro-1,6-naphthyridin-6(5H)-yl)-4H-pyrimido[1,2-b]pyridazin-4-one] were 88% and 203 nM.
Taken in the same sequence, the figures for `Cc1ccc(-c2cnc3c(c2)CN(c2nn4c(=O)cc(C)nc4cc2C)CC3)cc1` [Compound 1-293, 2,8-dimethyl-7-(3-(p-tolyl)-7,8-dihydro-1,6-naphthyridin-6(5H)-yl)-4H-pyrimido[1,2-b]pyridazin-4-one] were 88% and 331 nM.
In the same order, the values of `Cc1c(N2CCc3ncc(-c4cnn(-c5ccccn5)c4)cc3C2)nn2c(=O)ccnc2c1C` [Compound 1-153, 8,9-dimethyl-7-(3-(1-(pyridin-2-yl)-1H-pyrazol-4-yl)-7,8-dihydro-1,6-naphthyridin-6(5H)-yl)-4H-pyrimido[1,2-b]pyridazin-4-one] are 67% and 584 nM.
For the compound `Cc1cc2nccc(=O)n2nc1N1CCc2ncc(-c3ccnc(C4CC4)c3)cc2C1` [Compound 1-54, 7-(3-(2-cyclopropylpyridin-4-yl)-7,8-dihydro-1,6-naphthyridin-6(5H)-yl)-8-methyl-4H-pyrimido[1,2-b]pyridazin-4-one], the Emax at 30 µM is 76% and the EC50 amounted to 479 nM.

The values above are taken from patent publication US20250101041A1, “POSITIVE ALLOSTERIC MODULATORS OF THE MUSCARINIC ACETYLCHOLINE RECEPTOR M4” (Vanderbilt University, priority 2022, published 2025).
